The values below come from ChEMBL document CHEMBL5352419, “Design, synthesis, and biological evaluation of tetrahydroquinoline amphiphiles as membrane-targeting antimicrobials against pathogenic bacteria and fungi” (Eur J Med Chem, 2022).

Values after ≈ are worked out from the molar mass of the structure shown.

Data set [1] relates to Candida albicans. Description: Antimicrobial activity against Candida albicans ATCC10231 assessed as fungal growth inhibition incubated for 48 hrs by Sabouraud Dextrose broth based dilution assay. It is filed as functional.
Data set [2] relates to Staphylococcus aureus. Description: Antimicrobial activity against methicillin-resistant Staphylococcus aureus NCTC10442 assessed as bacterial growth inhibition incubated for 24 hrs by Muller Hinton broth based dilution assay. It is filed as functional.
The nature of data set [3]: Hemolytic activity in rabbit RBC incubated for 1 hr by absorbance based microplate reader assay. It is filed as toxicity, cell-based, Oryctolagus cuniculus, Erythrocyte. The note with it: rabbit red blood cells (erythrocytes).
The test system of a further data set is Escherichia coli. Description: Antimicrobial activity against Escherichia coli ATCC25922 assessed as bacterial growth inhibition incubated for 24 hrs by Muller Hinton broth based dilution assay. It is filed as functional.
In data set [4] the test system is Staphylococcus aureus. Description: Antimicrobial activity against methicillin-resistant Staphylococcus aureus N315 assessed as bacterial growth inhibition incubated for 24 hrs by Muller Hinton broth based dilution assay. The class given is functional.
Data set [5] deals with Candida albicans. Description: Antimicrobial activity against Candida albicans CMCC98001 assessed as fungal growth inhibition incubated for 48 hrs by Sabouraud Dextrose broth based dilution assay. It is filed as functional.
In data set [6] the test system is Staphylococcus aureus. Description: Antimicrobial activity against Staphylococcus aureus ATCC29213 assessed as bacterial growth inhibition incubated for 24 hrs by Muller Hinton broth based dilution assay. It is filed as functional.

For orientation: MIC means the lowest concentration found to suppress growth. In general, HC50 refers to the concentration that lyses half of the red blood cells. For `CC(C)=CCN1CCCc2cc(OCCCCN3CCCC3)ccc21`, the MIC in the data set with Candida albicans [1], with Staphylococcus aureus [2], in the data set with Escherichia coli, with Staphylococcus aureus [4], in the data set on Candida albicans [5] and with Staphylococcus aureus [6] was over 50 µg/mL throughout. In data set [3], this compound yielded an HC50 at 1 h of over 200 µg/mL.
On to `CCCN1CCCc2cc(OCCCCNC(=N)N)ccc21`, for which the MIC in the data set with Candida albicans [1] was over 50 µg/mL; in the data set on Staphylococcus aureus [2] it was 12.5 µg/mL (≈ 41.1 µM); in the data set with Escherichia coli it was over 50 µg/mL; with Staphylococcus aureus [4], 6.25 µg/mL (≈ 20.5 µM); in the data set with Candida albicans [5], over 50 µg/mL; in the data set with Staphylococcus aureus [6], 12.5 µg/mL (≈ 41.1 µM). This compound also registered an HC50 at 1 h in data set [3] of over 200 µg/mL.
For the compound `CC(C)=CCN1CCCc2cc(OCCCCN3CCCCC3)ccc21`, the MIC in the data set with Candida albicans [1], in the data set on Staphylococcus aureus [2], with Escherichia coli, in the data set with Staphylococcus aureus [4], in the data set with Candida albicans [5] and with Staphylococcus aureus [6] was over 50 µg/mL in each case. In data set [3], this compound yielded an HC50 at 1 h of over 200 µg/mL.
Regarding `Oc1ccc2c(c1)CCCN2`, the MIC in the data set on Candida albicans [1], in the data set on Staphylococcus aureus [2], with Escherichia coli, with Staphylococcus aureus [4], in the data set with Candida albicans [5] and in the data set with Staphylococcus aureus [6] was over 50 µg/mL in each case. Also, the HC50 at 1 h in data set [3] is over 200 µg/mL.
Turning to `CCCCCN1CCCc2cc(OCC(=O)N[C@@H](CCCNC(=N)N)C(=O)OC)ccc21`, the MIC is over 50 µg/mL in the data set with Candida albicans [1]; 25 µg/mL (≈ 55.9 µM) in the data set with Staphylococcus aureus [2]; over 50 µg/mL in the data set on Escherichia coli; 25 µg/mL (≈ 55.9 µM) in the data set on Staphylococcus aureus [4]; over 50 µg/mL in the data set on Candida albicans [5]; 50 µg/mL (≈ 112 µM) in the data set on Staphylococcus aureus [6]. Also, the HC50 at 1 h in data set [3] was over 200 µg/mL.
For `CC(C)=CCN1CCCc2cc(O)ccc21`, the MIC was over 50 µg/mL in the data set on Candida albicans [1]; 50 µg/mL (≈ 230 µM) in the data set with Staphylococcus aureus [2]; over 50 µg/mL with Escherichia coli; 50 µg/mL (≈ 230 µM) in the data set with Staphylococcus aureus [4]; over 50 µg/mL with Candida albicans [5]; 50 µg/mL (≈ 230 µM) in the data set on Staphylococcus aureus [6]. In data set [3], this compound had an HC50 at 1 h of over 200 µg/mL.
In the case of `CCCCCCCN1CCCc2cc(O)ccc21`, the MIC is over 50 µg/mL in the data set with Candida albicans [1]; 12.5 µg/mL (≈ 50.5 µM) with Staphylococcus aureus [2]; over 50 µg/mL in the data set on Escherichia coli; 12.5 µg/mL (≈ 50.5 µM) with Staphylococcus aureus [4]; over 50 µg/mL in the data set with Candida albicans [5]; 12.5 µg/mL (≈ 50.5 µM) with Staphylococcus aureus [6]. The same compound registered an HC50 at 1 h in data set [3] of over 200 µg/mL.
`CC(C)=CCN1CCCc2cc(OCCCNC(=N)N)ccc21`: the MIC in the data set on Candida albicans [1] is over 50 µg/mL; with Staphylococcus aureus [2], 6.25 µg/mL (≈ 19.8 µM); in the data set with Escherichia coli, 50 µg/mL (≈ 158 µM); in the data set with Staphylococcus aureus [4] it was 6.25 µg/mL (≈ 19.8 µM); with Candida albicans [5] it was over 50 µg/mL; in the data set on Staphylococcus aureus [6], 6.25 µg/mL (≈ 19.8 µM). Further, the HC50 at 1 h in data set [3] is over 200 µg/mL.
Take `CC(C)=CCC/C(C)=C/CN1CCCc2cc(OCCCCBr)ccc21`: the MIC with Candida albicans [1] was over 50 µg/mL; in the data set on Staphylococcus aureus [2], 25 µg/mL (≈ 59.5 µM); in the data set with Escherichia coli, over 50 µg/mL; in the data set on Staphylococcus aureus [4], 25 µg/mL (≈ 59.5 µM); with Candida albicans [5] it was 50 µg/mL (≈ 119 µM); in the data set with Staphylococcus aureus [6], 25 µg/mL (≈ 59.5 µM). The compound further had an HC50 at 1 h in data set [3] of over 200 µg/mL.
For the compound `CC(C)=CCN1CCCc2cc(OCCCCCCCCBr)ccc21`, the MIC in the data set with Candida albicans [1] is 50 µg/mL (≈ 122 µM); in the data set with Staphylococcus aureus [2], over 50 µg/mL; in the data set on Escherichia coli, over 50 µg/mL; with Staphylococcus aureus [4], over 50 µg/mL; in the data set with Candida albicans [5], 50 µg/mL (≈ 122 µM); in the data set on Staphylococcus aureus [6], over 50 µg/mL. In data set [3], this compound registered an HC50 at 1 h of over 200 µg/mL.
For the compound `CCCCCN1CCCc2cc(O)ccc21`, the MIC with Candida albicans [1] was over 50 µg/mL; in the data set on Staphylococcus aureus [2] it was 25 µg/mL (≈ 114 µM); in the data set with Escherichia coli it was over 50 µg/mL; in the data set with Staphylococcus aureus [4], 25 µg/mL (≈ 114 µM); with Candida albicans [5] it was over 50 µg/mL; in the data set with Staphylococcus aureus [6], 50 µg/mL (≈ 228 µM). This compound yielded an HC50 at 1 h in data set [3] of over 200 µg/mL.
In the case of `CCCNCCCCOc1ccc2c(c1)CCCN2CC=C(C)C`, the MIC in the data set on Candida albicans [1] was over 50 µg/mL; in the data set on Staphylococcus aureus [2] it was 25 µg/mL (≈ 75.6 µM); in the data set with Escherichia coli, over 50 µg/mL; in the data set with Staphylococcus aureus [4] it was 25 µg/mL (≈ 75.6 µM); with Candida albicans [5] it was over 50 µg/mL; in the data set on Staphylococcus aureus [6], 50 µg/mL (≈ 151 µM). In data set [3], the HC50 at 1 h is over 200 µg/mL.
On to `CCCCCCCN1CCCc2cc(OCC(=O)N[C@@H](CCCNC(=N)N)C(=O)N[C@@H](CCCNC(=N)N)C(=O)OC)ccc21`, for which the MIC is over 50 µg/mL in the data set on Candida albicans [1]; 3.12 µg/mL (≈ 4.95 µM) in the data set with Staphylococcus aureus [2]; 50 µg/mL (≈ 79.1 µM) in the data set on Escherichia coli; 3.12 µg/mL (≈ 4.95 µM) in the data set on Staphylococcus aureus [4]; 50 µg/mL (≈ 79.1 µM) with Candida albicans [5]; 6.25 µg/mL (≈ 9.89 µM) in the data set on Staphylococcus aureus [6]. In data set [3], the HC50 at 1 h was over 200 µg/mL.
With `CCN(CC)CCCCOc1ccc2c(c1)CCCN2CC=C(C)C`, the MIC in the data set with Candida albicans [1], in the data set with Staphylococcus aureus [2], in the data set on Escherichia coli, with Staphylococcus aureus [4], in the data set on Candida albicans [5] and with Staphylococcus aureus [6] was over 50 µg/mL each time. Moreover, the HC50 at 1 h in data set [3] was over 200 µg/mL.
Consider `CCCCCCCN1CCCc2cc(OCCCCBr)ccc21`, for which the MIC in the data set on Candida albicans [1] is 25 µg/mL (≈ 65.4 µM); in the data set with Staphylococcus aureus [2], 6.25 µg/mL (≈ 16.3 µM); in the data set on Escherichia coli, 25 µg/mL (≈ 65.4 µM); in the data set with Staphylococcus aureus [4] it was 6.25 µg/mL (≈ 16.3 µM); in the data set with Candida albicans [5], 12.5 µg/mL (≈ 32.7 µM); in the data set with Staphylococcus aureus [6], 12.5 µg/mL (≈ 32.7 µM). The HC50 at 1 h in data set [3] is over 200 µg/mL.
With `CCCCCCCCCN1CCCc2cc(OCCCCCCCCNC(=N)N)ccc21`, the MIC with Candida albicans [1] worked out at 0.78 µg/mL (≈ 1.75 µM); in the data set on Staphylococcus aureus [2], 3.12 µg/mL (≈ 7.03 µM); with Escherichia coli, 25 µg/mL (≈ 56.2 µM); in the data set with Staphylococcus aureus [4], 3.12 µg/mL (≈ 7.03 µM); in the data set with Candida albicans [5], 1.56 µg/mL (≈ 3.51 µM); with Staphylococcus aureus [6], 3.12 µg/mL (≈ 7.03 µM). Besides, in data set [3], the HC50 at 1 h was over 200 µg/mL.
With `CC(C)=CCC/C(C)=C/CN1CCCc2cc(OCCCCCCCCNC(=N)N)ccc21`, the MIC with Candida albicans [1] stood at 0.78 µg/mL (≈ 1.72 µM); with Staphylococcus aureus [2] it was 1.56 µg/mL (≈ 3.43 µM); in the data set on Escherichia coli, 25 µg/mL (≈ 55 µM); in the data set on Staphylococcus aureus [4], 3.12 µg/mL (≈ 6.87 µM); in the data set with Candida albicans [5], 0.78 µg/mL (≈ 1.72 µM); with Staphylococcus aureus [6] it was 3.12 µg/mL (≈ 6.87 µM). For the same compound, in data set [3], the HC50 at 1 h is over 200 µg/mL.
As for `CCCCCCCCCN1CCCc2cc(OCC(=O)OCC)ccc21`, the MIC in the data set with Candida albicans [1], in the data set on Staphylococcus aureus [2], in the data set on Escherichia coli, in the data set on Staphylococcus aureus [4], in the data set with Candida albicans [5] and in the data set on Staphylococcus aureus [6] was over 50 µg/mL in each case. Moreover, in data set [3], the HC50 at 1 h is over 200 µg/mL.
Turning to `CC(C)=CCN1CCCc2cc(OCCCCBr)ccc21`, the minimal inhibitory concentration (MIC) with Candida albicans [1] is over 50 µg/mL; with Staphylococcus aureus [2] it was 25 µg/mL (≈ 71 µM); in the data set on Escherichia coli it was over 50 µg/mL; in the data set with Staphylococcus aureus [4], 12.5 µg/mL (≈ 35.5 µM); with Candida albicans [5], over 50 µg/mL; in the data set on Staphylococcus aureus [6] it was 25 µg/mL (≈ 71 µM). This compound gave an HC50 at 1 h in data set [3] of over 200 µg/mL.
Consider `CCCCCCCCCN1CCCc2cc(OCCCCBr)ccc21`, for which the MIC came to 50 µg/mL (≈ 122 µM) in the data set with Candida albicans [1]; 12.5 µg/mL (≈ 30.5 µM) with Staphylococcus aureus [2]; 25 µg/mL (≈ 60.9 µM) with Escherichia coli; 12.5 µg/mL (≈ 30.5 µM) in the data set with Staphylococcus aureus [4]; 50 µg/mL (≈ 122 µM) with Candida albicans [5]; 6.25 µg/mL (≈ 15.2 µM) in the data set with Staphylococcus aureus [6]. For the same compound, the HC50 at 1 h in data set [3] is over 200 µg/mL.
For the compound `CC(C)=CCN1CCCc2cc(OCCCBr)ccc21`, the MIC in the data set on Candida albicans [1] was 50 µg/mL (≈ 148 µM); with Staphylococcus aureus [2] it was 25 µg/mL (≈ 73.9 µM); with Escherichia coli it was over 50 µg/mL; in the data set with Staphylococcus aureus [4], 25 µg/mL (≈ 73.9 µM); in the data set on Candida albicans [5], 50 µg/mL (≈ 148 µM); in the data set with Staphylococcus aureus [6] it was 25 µg/mL (≈ 73.9 µM). The same compound displayed an HC50 at 1 h in data set [3] of over 200 µg/mL.
Regarding `CCCCCN1CCCc2cc(OCC(=O)OCC)ccc21`, the MIC with Candida albicans [1], with Staphylococcus aureus [2], in the data set on Escherichia coli, in the data set with Staphylococcus aureus [4], with Candida albicans [5] and in the data set on Staphylococcus aureus [6] was over 50 µg/mL each time. This compound also returned an HC50 at 1 h in data set [3] of over 200 µg/mL.
`C[C@@H]1C/C=C/C=C/C=C/C=C/[C@H](O[C@@H]2O[C@H](C)[C@@H](O)[C@H](N)[C@@H]2O)C[C@@H]2O[C@](O)(C[C@@H](O)C[C@H]3O[C@@H]3/C=C/C(=O)O1)C[C@H](O)[C@H]2C(=O)O` [NATAMYCIN]: the MIC in the data set with Candida albicans [1] and in the data set on Candida albicans [5] was 6.25 µg/mL (≈ 9.39 µM) throughout.
